Assay results: US7812009B2, “Mastitis treatment” (Intervet International B.V., priority 2002, dated 2010)

How the values were obtained:
[1] = system: experimental Streptococcus uberis mastitis; experiment: Rectal temperature in cows with experimental Streptococcus uberis mastitis; format: in vivo; conditions: cephapirin alone, intramammary, 4 infusions
Protocol: Eighteen lactating cows were intramammarily inoculated into the two left quarters with Streptococcus uberis (±1000 CFU/quarter). At 2 days after challenge, when all cows had clinical signs of mastitis (i.e. quarter foremilk modification and/or udder swelling), cows were allotted to three groups of six cows each, to produce groups with similar parity and milk production.
One group was treated with cephapirin alone (group 1), one group was treated with cephapirin and 20 mg prednisolone (group 2) and one group was non-treated (group 3). Cows included in group 1 and group 2 were treated in the 2 left inoculated quarters at day 2 after challenge. The first treatment was applied after a morning milking, and the following three infusions were performed immediately after the next 3 consecutive milkings. Cows of group 3 were left untreated. […] The rectal temperature was determined from day 9 before first treatment up to day 19 after first treatment.

leukocytes in blood = experiment: Number of leukocytes in blood from cows with endotoxin-induced mastitis; format: in vivo
Protocol: (§1) Fifteen cows were allotted to three groups of 5 cows each, according to milk production and parity. Cows were intramammary infused into 2 homo-lateral quarters with 100 μg Escherichia coli endotoxin (purified lipopolysacchide (LPS) obtained from E. coli 0111:B4) in 20 ml saline.
(§2) Cows were treated with the contents of one injector per endotoxin infused quarter when the first signs of clinical mastitis were evident, i.e. approximately 2 hours after endotoxin infusion. One group was treated with 300 mg of cephapirin, one group with 300 mg of cephapirin and 20 mg of prednisolone and one group was the non-treated control. The test preparations contained cephapirin and prednisolone in an oil carrier.
(§3) Blood samples were collected from the jugular vein at 24 hours before endotoxin infusion and 1.5, 8, 48 and 72 hours after endotoxin infusion.

blood PMN = experiment: Chemotaxis of blood PMN from cows with endotoxin-induced mastitis; format: in vivo
Protocol: as §1, §2, §3

[2] = system: cows with endotoxin-induced mastitis; experiment: Udder scores (local inflammation) in cows with E. coli endotoxin-induced mastitis; format: in vivo
Protocol: Twenty-four cows were allotted to four groups of 6 cows each, according to milk production and parity. All cows were intramammary infused into two homo-lateral quarters with 100 μg Escherichia coli endotoxin (purified lipopolysacchide (LPS) obtained from E. coli 0111:B4) in 20 ml saline.
The test preparations contained cephapirin and prednisolone in an oily carrier. Four different dose levels of prednisolone were tested: 0 mg (group 1), 10 mg (group 2), 20 mg (group 3) and 40 mg (group 4) per injector (8 g) together with 200 mg of cephapirin sodium.
Cows were treated with the contents of one injector per endotoxin infused quarter when the first signs of clinical mastitis were evident, i.e. 1.5 hours after endotoxin infusion. The next three treatments were infused immediately after consecutive afternoon or morning milkings (12 hours interval) during 2 days. In total four treatments were administered.
Udder scores: The condition and swelling of quarters were determined by palpation once daily after morning milking from day−7 to day−1 relative to endotoxin infusion and twice daily after milkings from day+1 to day+6 relative to endotoxin infusion. The day of endotoxin infusion, swelling of quarters was assessed by palpation approximately every half hour during ±12.5 hours after infusion. The scoring system provides scores 0 to 4. Higher values refer to increased and more severe signs of local inflammation.

[3] = system: pathogen identified on day 0 (clinical mastitis); experiment: Field study: bacteriological cure rate in clinical mastitis; format: in vivo, cows; conditions: higher dosage of prednisolone (20 mg) versus 10 mg, field conditions
Protocol: Lactating cows with clinical mastitis in a single quarter (571) were treated intramammarily either with a composition A (n=260) comprising 300 mg cefapirin sodium and 20 mg of prednisolone four times with a 12 h interval or with composition B (n=254) comprising 200 mg amoxicilline, 50 mg clavulanic acid and 10 mg of prednisolone three times with a 12 h interval. These administration schedules correspond to the recommended dosage of the products. The efficacy of the treatment was determined by the bacteriological cure rate (elimination of pathogen identified on day 0) at day 14, and day 21 and the clinical cure rate (affected quarter produces normal milk and no signs of clinical mastitis anymore) at days 14 and 21.
Bacteriological cure: A cow was considered as bacteriologically cured when, both on Days 14 and 21, the milk sample from the affected quarter was free from pathogen(s) present at day 0 (at admission prior to treatment). For clinical mastitis, treatment were considered as a failure for which cows were not yet clinically cured on the first post-treatment sampling (Day 14). […]
The parameters for efficacy are the outcome variables “bacteriological cure” (cure/non-cure) and “clinical cure” (cure/non-cure). The results in Table 3 and FIG. 6 are expressed as numbers and percentages of cows cured.

[4] = system: non-bacterial E. coli endotoxin induced clinical mastitis; conditions: intramammary infusion of 40 mg/unit dose; experimental conditions; cited from earlier work
[5] = 1.5 hours relative to endotoxin infusion (before first treatment)
[6] = 8 hours relative to endotoxin infusion, treatments at 2, 8, 24 and 36 hours
[7] = 24 hours relative to endotoxin infusion, treatments at 2, 8, 24 and 36 hours
[8] = 72 hours relative to endotoxin infusion, treatments at 2, 8, 24 and 36 hours
[9] = −24 hours relative to endotoxin infusion (before treatment)

| SMILES | average rectal temperature after treatment [1] | Number of leukocytes in blood (mean) (leukocytes in blood; [5]) | Number of leukocytes in blood (mean) (leukocytes in blood; [6]) | Number of leukocytes in blood (mean) (leukocytes in blood; [7]) | Number of leukocytes in blood (mean) (leukocytes in blood; [8]) | Number of leukocytes in blood (mean) (leukocytes in blood; [9]) | Chemotactic PMN (mean) (blood PMN; [5]) [mL⁻¹] | Chemotactic PMN (mean) (blood PMN; [6]) [mL⁻¹] | Chemotactic PMN (mean) (blood PMN; [7]) [mL⁻¹] | Chemotactic PMN (mean) (blood PMN; [8]) [mL⁻¹] | Chemotactic PMN (mean) (blood PMN; [9]) [mL⁻¹] | dose effect relation of prednisolone and sum of udder scores ([2]; 0, 10, 20, 40 mg prednisolone per injector with 200 mg cephapirin sodium, higher dosages gave lower sum of udder scores) | sum of udder scores compared to placebo quarters ([2]; 20 mg prednisolone per injector with 200 mg cephapirin sodium, intramammary, 4 treatments, from 8 hours post infusion up to evening milking of day 5) | sum of udder scores compared to placebo quarters (0 mg prednisolone) and quarters treated with 10 mg prednisolone ([2]; 40 mg prednisolone per injector with 200 mg cephapirin sodium, intramammary, 4 treatments, from 8 hours post infusion up to evening milking of day 5) | influence on the bacteriological cure rate [3] | effects on local and systemic inflammatory signs [4] |
| --- | --- | --- | --- | --- | --- | --- | --- | --- | --- | --- | --- | --- | --- | --- | --- | --- |
| CC(=O)OCC1=C(C(=O)O)N2C(=O)[C@@H](NC(=O)CSc3ccncc3)[C@H]2SC1 [Cephapirin] | decreased slowly | 8157 | 6329 | 12148 | 11317 | 8217 | 1.404e+06 | 142000 | 650000 | 135000 | 2.115e+06 | – | – | – | – | – |
| C[C@]12C=CC(=O)C=C1CC[C@@H]1[C@@H]2[C@@H](O)C[C@@]2(C)[C@H]1CC[C@]2(O)C(=O)CO [prednisolone, (11β)-11,17,21-trihydroxypregna-1,4-diene-3,20-dione] | – | – | – | – | – | – | – | – | – | – | – | clear dose effect relation | lower sum of udder scores | significantly lower | did not negatively influence | improved effects |
